Measured values reported in patent US20030104461A1, “Methods for detecting cells with numerical chromosomal abnormalities” (priority 2001, published 2003).
Where two headings read alike, the source gives them in different places.

Experiments:
[1] = test system: human lymphocytes
Protocol: Peripheral blood was collected in heparinized vacutainers from healthy male and female volunteers (<40 years of age). Approximate 10 ml of whole blood was dispensed into a Lymphoprep™ tube (Nycomed Pharma AS Diagnostic, Oslo, Norway) containing ˜10 ml of sterile phosphate buffered saline. Following centrifugation for 20 minutes at 2000 rpm, the lymphocyte population was isolated and washed (1X) in PBS. Stock cultures of isolated lymphocytes were established in Williams E medium supplemented with 10% fetal calf serum, 100 U/ml penicillin and 100 ug/ml streptomycin, 2 mM L-glutamine and 1.0% Phytohemmaglutanin-M form (all reagents from Gibco BRL Life Technologies, Inc., Grand Island, N.Y.). The stock cultures were maintained at 37° C. in 5% CO2 atmosphere for about 48 hours. The lymphocytes were treated with 0 to 100 μg/ml of the aneugen, Noscapine, (Sigma Chemicals), a known aneugen, for 24 hours at 37° C.
The Noscapine treated and untreated lymphocytes, were then centrifuged for 6 minutes at 1000 rpm, the supernatant was removed and the lymphocytes were resuspended in 5 ml of Phosphate Buffered Saline (PBS; GIBCO BRL). The lymphocytes were then centrifuged, the supernatant removed, and the cells resuspended in 0.5 ml of PBS. The cell suspension was pipetted thoroughly through a 9-inch Pasteur pipette (Kimble Glass Inc.) to ensure single cell suspension. While vortexing a tube containing −20° C. (70%) ethanol (about 4.5 ml volume), the cell suspension was added drop by drop. The ethanol solution was prepared by adding 30 ml of distilled water to 70 ml of 200 proof ethyl alcohol from Phamco Products. The cells were then stored at −20° C. in the ethanol for at least 24 hours.
The cells that were stored at −20° C. for at least 24 hours were stained with the H3-P antibody and Alexa Fluor as described above for the H3-P+Alexa (GREEN) stained cells. After the incubation of the cells for 30 minutes at 37° C. with the Alexa Fluor, 5 ml of PBS was added to the cells, the cells were centrifuged, the supernatant removed and the cell pellet resuspended in 1.0 ml of PI/RNase A stain (as described above). The cells were stored on ice until analyzed.
Exited instrument set up mode to acquisition mode. Acquisition for DNA analysis was started and 10,000 ungated cells were acquired. […] The FL2 voltage was optimized as needed per sample (i.e., to keep the G1 peak on 200 of FL2-A x-axis) for Aneuploidy and Polyploidy acquisition. 50,000 ungated cells were acquired from each sample. The data was saved in listmode format.
The presence of aneuploid and polyploid cells in the lymphocytes was determined as follows. CellQuest™ Software was opened, and PLOT and OPEN a dialog box from the tool bar for creating a dot plot. FILE was selected and a data file was opened. […] The dot plot was expanded to the width of the paper. A gate was set for the DNA distribution by starting slightly to the left of the cycling population then continuing to the far right region of the dot plot ending the gate at the 2nd Y axis. The extension of this gate to the 2nd Y-axis of the dot plot was to accommodate cells with greater than 4n DNA (see FIG. 1A). PLOT and OPEN a dialog box was chosen from the tool bar for creating a dot plot.
Using the interphase cells as a guide, the first gate was set over the mitotic cell area above the G0G1-S phase areas.

[2] = test system: human lymphocytes; experiment: Manual microscopic analysis of polyploid cells (polyploid index, Giemsa stained slides); assay type: cell-based; settings: at each concentration of Noscapine; 1000 consecutive mitotic cells scored for 8n mitotic cells
Protocol: Human lymphocytes described above and treated or not with Noscapine as described above were subjected to manual analysis of numerical chromosomal abnormalities for comparison with the number of cells having numerical chromosomal abnormalities (i.e. polyploidy) obtained in Example 1. For manual analysis, samples of cells were centrifuged for 6 minutes at 1000 rpm. The supernatant was removed and the cell pellet was resuspended in 5 ml of 1% pre-warmed (37° C.) sodium citrate. The latter solution was prepared by mixing 1 g of […] (Sigma Chemicals) in 100 ml of distilled water. The cells were immediately centrifuged as described above. The supernatant was removed and the pellet was vigorously re-suspended in 5 ml of 4° C. fixative (3:1 methanol:acetic acid). The cells were then centrifuged as described above and the pellet resuspended in 5 ml of 4° C. fixative (3:1 methanol:acetic acid). The cells were then stored overnight at −20° C. or until slide preparation. The slides were prepared as follows. The cells were centrifuged as described above and the supernatant was then poured off. The pellet was re-suspended in about 2 ml of fresh fixative solution. […] The polyploid index was determined by systematically scoring 1000 consecutive mitotic cells for the frequency of 8n mitotic cells under low magnification (bright field).

[3] = stimulated human lymphocytes treated 24 hours at 37° C., flow cytometry

## C=C1[C@@H](C)[C@H]2[C@H](Cc3ccccc3)NC(=O)[C@]23OC(=O)/C=C/[C@H](O)CCC[C@@H](C)C/C=C/[C@H]3[C@@H]1O [Cytochalasin B]
[1]; [3]
  percent of hyperdiploid cells (mitotic cells with DNA content >4n but <8n): minimal
  percent of hypodiploid cells (mitotic cells with DNA content >2n but <4n): high
  percent of polyploid cells (mitotic cells with DNA content of 8N): high

## CN[C@H]1CCc2cc(OC)c(OC)c(OC)c2-c2ccc(OC)c(=O)cc21 [Colcemid®, Colcemid]
[1]
  percent of hyperdiploid cells (mitotic cells with DNA content >4n but <8n): increased
  percent of hypodiploid cells (mitotic cells with DNA content >2n but <4n): increased
  percent of polyploid cells (mitotic cells with DNA content of 8N): high

## COc1ccc2c(c1OC)C(=O)O[C@@H]2[C@H]1c2c(cc3c(c2OC)OCO3)CCN1C [Noscapine]
[2]
  number of polyploid cells counted manually compared with flow cytometric evaluation: similar
